For ten compounds, IC50, antiasthmatic effect and PGDS inhibition results are on record in patent US8258130B2 (Sanofi, priority 2007, dated 2012).

Assay [1] addresses human h-PGDS (Homo sapiens, UniProt O60760). Description: Enzyme Immunoassay (EIA) method, inhibition of hematopoietic PGD2 synthase. In kind it is biochemical. The settings on record: EIA assay, PGD2 formed from PGH2 by human h-PGDS. Here is the method: Assay 2: Enzyme Immunoassay (EIA) Method
• a. Preparation of 0.1M K2HPO4/KH2PO4 buffer (pH 7.4) • Prepare 0.1 M KH2PO4 from 1M KH2PO4 (Sigma, Cat# P-8709) • Prepare 0.1 M K2HPO4 from powder of K2HPO4 (Fisher, BP363-500) • Mix 0.1 M K2HPO4 with 0.1 M KH2PO4 to adjust pH to 7.4. • b. Preparation of 0.5% γ-globulin • Add 0.1 g of γ-globulin (Sigma, Cat# G-5009) to 20 mL 0.1 M K2HPO4/KH2PO4 buffer (pH 7.4) and make 1-mL/vial aliquots and store in −80° C. • c. Preparation of 100 mM GSH • Add 307 mg of GSH (Sigma, Cat# G-6529) to 10 mL 0.1 M K2HPO4/KH2PO4 buffer (pH 7.4) and store at −80° C. • d. Preparation of Reaction buffer: • 198 mL of 0.1M K2HPO4/KH2PO4 buffer (pH 7.4) • 2 mM GSH—Prepared from 100 mM GSH • 0.4 g Glycerol • 2 mL of 0.5% γ-globulin • Add 0.4 g of glycerol and 2 mL of 0.5% γ-globulin to 198 mL of 0.1 M K2HPO4/KH2PO4 • buffer (pH7.4). • Add 0.4 mL of 100 mM GSH to 19.6 mL reaction buffer before the assay (enough for two 96-well plates). • e. Preparation of FeCl2/citric acid stopping solution: (8 mg/mL FeCl2, 0.1 M citric acid) • Add 40 mg fresh FeCl2 (IGN, Cat# 158046) to 5 mL 0.1 M citric acid (Sigma, Cat# C0759). • f. Preparation of MOX reagent: • 10% EtOH—Add 1 mL of EtOH to 9 mL of ultra pure H2O • Dissolve 0.1 g of methoxyl amine (Cayman, Cat# 400036/) in 10% EtOH (10 mL). • Add 0.82 g of sodium acetate (Cayman, Cat#400037) to MOX solution and dissolve. II. Materials and Method • Dimethylsulfoxide (DMSO; Sigma; Cat# D2650) • Prostaglandin D2-MOX express EIA kit (Caymen Chemical, Catalog No. 500151)
Before the assay, cool down 10 mL of acetone in polypropylene tubes and empty 96 well plates in ice. All the procedures except compound dilution are performed on ice.
• 1. Dilute compound in DMSO
• 2. Dilute 2 μL of each above concentration of compound to 38 μL of reaction buffer in 96-well plates and mix. IV. Enzyme and Substrate Solution Preparation • 1 Preparation of 0.39 ng/μL enzyme solution (0.35 ng/μL at final after compound addition). • Mix 4 μL of 4 mg/mL human h-PGDS with 396 μL of reaction buffer (to give enzyme concentration 40 μg/mL). Add 46.8 μL of 40 μg/mL h-PGDS to 4.753 mL of reaction buffer to give a total volume of 4.8 mL • 2. Preparation of Substrate Solution (PGH2): Add 0.375 mL of 0.1 mg/mL of PGH2 to 1.625 mL acetone. V. Enzyme Reaction: • 1. Add 60 μL of enzyme solution to compound well and positive control (without compound) in U-bottom polypropylene plate on ice. • 2. Add 60 μL of reaction buffer and 6.6 μL of 5% DMSO in reaction buffer into negative control wells in the plate. • 3. Add 6.6 μL of diluted compound in reaction buffer to the compound wells and mix. • 4. Add 6.6 μL of 5% DMSO in reaction buffer to the positive control well. • 5. Incubate the plate in ice for at least 30 min. • 6. Add 20 μL of substrate (PGH2) solution to compound, negative and positive control wells in the U-bottom 96 well plate on ice. • 7. Dry the plate in cold room for about 25-28 min. • 8. Pipette 45 μL of enzyme solution (above) into 96-wells with dried PGH2 and mix 3 times. Incubate on the ice for 1 min. • 9. Add 45 μL of FeCl2 solution into each wells and mix. • 10. Add 90 μL of MOX solution and mix. • 11. Incubate for 30 min at 60° C. • 12. Dilute the samples 2500× with EIA buffer. VI. EIA Assay • Perform the assay according to the procedure in EIA kit provided by Cayman. Total PGD2 levels (pg/mL) were determined in the samples by EIA kits (Caymen Chemical, Catalog No. 500151) Calculate Amount of PGD2 as Below • Calculated % Positive control according to the equation below; % Positive control=(Compound value−Negative control)/(Positive value−Negative control value)×100. […]

For assay [2], the system named is rat. The settings on record: rat model; cited from earlier work.
In assay [3] the test system is guinea pig. The settings on record: guinea pig model; cited from earlier work.
Assay [4] has as its system PGDS. To be noted: cited from earlier work.

The structures appear in SMILES notation. pIC50: −log10 of the molar value.

Chain of human h-PGDS (O60760 whole entry): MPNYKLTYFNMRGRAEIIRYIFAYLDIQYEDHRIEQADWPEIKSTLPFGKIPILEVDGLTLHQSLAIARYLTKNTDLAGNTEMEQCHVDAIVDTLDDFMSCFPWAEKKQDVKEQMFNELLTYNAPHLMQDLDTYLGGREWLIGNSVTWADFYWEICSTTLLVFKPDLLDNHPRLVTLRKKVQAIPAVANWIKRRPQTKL

On to `Cc1nc(-c2cccc(F)c2)ncc1C(=O)NN(c1ccccc1)c1ccccc1` [Example 190, 2-(3-Fluoro-phenyl)-4-methyl-pyrimidine-5-carboxylic acid N′,N′-diphenyl-hydrazide], for which the pIC50 in assay [1] was 7.80.

As for `CCc1cn(NC(=O)c2cnc(-c3cccc(F)c3)nc2C)c2cnccc12` [Example 195, 2-(3-Fluoro-phenyl)-4-methyl-pyrimidine-5-carboxylic acid (3-ethyl-pyrrolo[2,3c]pyridin-1-yl)-amide], in assay [1], the pIC50 was 8.15.

In turn, `Cc1nc(-c2cccc(F)c2)ncc1C(=O)Nn1cc(C)c2ncccc21` [Example 197, 2-(3-Fluoro-phenyl)-4-methyl-pyrimidine-5-carboxylic acid (3-methyl-pyrrolo [32-b]pyridin-1-yl)-amide] gave a pIC50 in assay [1] of 8.70.

`Cc1cn(NC(=O)c2cnc(-c3ccccn3)nc2C(F)(F)F)c2ccc(F)cc12` [Example 209, 2-Pyridin-2-yl-4-trifluoromethyl-pyrimidine-5-carboxylic acid (5-fluoro-3-methyl-indol-1-yl)-amide] had a negative logarithm of the IC50 (pIC50) in assay [1] of 8.10.

Take `O=C(NN1CCOc2ccc(F)cc21)c1cnc(-c2cccc(F)c2)nc1` [Example 211, 2-(3-Fluoro-phenyl)-pyrimidine-5-carboxylic acid (6-fluoro-2,3-dihydro-1,4-benzoxazin-4-yl)-amide]: the negative logarithm of the IC50 (pIC50) in assay [1] is 7.92.

`O=C(NN1CCOc2ccc(F)cc21)c1cnc(-c2ccccc2)nc1` [Example 212, 2-Phenyl-pyrimidine-5-carboxylic acid (6-fluoro-2,3-dihydro-1,4-benzoxazin-4-yl)-amide] showed a negative logarithm of the IC50 (pIC50) in assay [1] of 7.68.

Take `Cc1nc(-c2cccc[n+]2[O-])ncc1C(=O)Nn1cc(C)c2cc(F)ccc21` [Example 225, 4-Methyl-2-(1-oxy-pyridin-2-yl)-pyrimidin-5-carboxylic acid (5-fluoro-3-methyl-indol-1-yl)-amide]: the negative logarithm of the IC50 (pIC50) in assay [1] is 6.07.

For the compound `Cc1cn(NC(=O)c2cnc(-c3cccc(C(F)F)c3)nc2)c2ccc(F)cc12` [Example 226, 2-(3-Difluoromethyl-phenyl)-pyrimidine-5-carboxylic acid (5-fluoro-3-methyl-indol-1-yl)-amide], the pIC50 in assay [1] was 7.77.

On to `Cc1cn(NC(=O)c2cnc(-c3cccc(C(F)(F)F)c3)nc2)c2ccc(F)cc12` [Example 227, 2-(3-Trifluoromethyl-phenyl)-pyrimidine-5-carboxylic acid (5-fluoro-3-methyl-indol-1-yl)-amide], for which, in assay [1], the negative logarithm of the IC50 (pIC50) is 6.58.

As for `c1ccc(C(OC2CCN(CCCc3nn[nH]n3)CC2)c2ccccc2)cc1` [HQL-79], the antiasthmatic effect entry in assay [2] and in assay [3] was “antiasthmatic” in each case. In assay [4], the PGDS inhibition result was “weak PGDS inhibitor”.

The term pIC50 denotes the IC50 on a negative log10 scale, so that one unit is a factor of ten.
